Entries after “also recorded” stand apart in the source; their conditions may differ. Like-named read-outs stand apart in the source and are kept apart here.
Columns and labels:
[1] = tested on: CQS (D6) strain of P. falciparum; assay: In vitro chemosensitizing effects of acridones (RMI), D6; assay type: cell-based; conditions: Plasmodium falciparum, D6, read-out: IC50 of CQ, D6
Excerpt: (§1) Antimalarial drug combinations can be assessed in a number of ways. For example, the response modification index (RMI) can be calculated by the following formula: RMI=IC50 of drug A in the presence of drug B/IC50 of drug A alone, where drug A is an existing antimalarial and B is a single sub-inhibitory concentration of the acridone candidate. An RMI less than 1.0 represents chemosensitization and possible synergy. A second method of evaluating combination therapies is Fractional Inhibitory Concentration, (e.g., FIC50=[IC50 of Drug A in the presence of a fixed amount of Drug B]/[IC50 of Drug A alone]). RMI and FIC are helpful measures for side-by-side comparison of multiple chemosensitizer drugs at fixed concentrations, but neither distinguishes between additive and synergistic effects, or describes effects over a wide concentration range. Standard FIC indices (FIC of Drug A+FIC of Drug B) distinguish synergistic, additive and antagonistic interactions, but are dependent on the correct estimation of the expected effect of the fixed test drug.

[2] = In vitro heme aggregation assay; conditions: 25 mM phosphate buffer, pH 4.8, 30 minutes at room temperature
Experimental: This example describes the in vitro inhibition of heme aggregation by xanthone 2,3,4,5,6-pentahydroxyxanthone. Conditions: 25 mM Phosphate buffer, pH 5.2, 1 hour incubation at 37° C. Further details of this assay are described by Ignatushchenko et al. in Xanthones as antimalarial agents; studies of a possible mode of action.
This example describes visual evidence that acridones disclosed herein form soluble complexes with heme under mildly acidic conditions. […] Employing the same assay conditions, heme was mixed with T2 or T3.5 under mildly acidic conditions (25 mM phosphate buffer, pH 4.8) and monitored. […] Without being limited to theory, it is believed that for some compounds inhibition of heme aggregation in vitro can be correlated with inhibition of hemozoin formation in vivo.

[3] = tested on: MDR (Dd2) strain of P. falciparum; assay: In vitro chemosensitizing effects of acridones (RMI), Dd2; assay type: cell-based; conditions: Plasmodium falciparum, DD2, read-out: IC50 of CQ, Dd2
Excerpt: as §1

[4] = tested on: MDR P. falciparum strain W2; assay: In vitro chemosensitization to chloroquine (RMI), strain W2; assay type: cell-based; conditions: Plasmodium falciparum, W2, read-out: IC50 of CQ in combination with 5 μM of selected drug, W2
[5] = tested on: CQ-sensitive D6 strain of P. falciparum; assay: In vitro antimalarial activity, SYBR Green MSF assay, D6; assay type: cell-based; conditions: Plasmodium falciparum
Excerpt: (§2) This example describes the screening of disclosed antimalarial acridones against the CQ-sensitive D6 strain and the MDR Dd2 strain of P. falciparum for in vitro antimalarial activity.

[6] = Heme-binding affinity (spectrophotometric titration); conditions: Table 3
Excerpt: With continued reference to FIG. 1, panel B illustrates the spectrophotometric titration curve of the heme:3,6-bis-ε-(N,N-diethylamino)-amyloxy xanthone (C5) complex. The apparent binding constant was derived from the best fit (solid line) of a 1:1 (heme dimer:C5) association model. […] Panels A and B show the fluorescence localization of C5 and LysoTracker Red, respectively.

[7] = tested on: MDR Dd2 strain of P. falciparum; assay: In vitro antimalarial activity, SYBR Green MSF assay, Dd2; assay type: cell-based; conditions: Plasmodium falciparum
Excerpt: as §2
As shown in Table 3 and Table 4, selected soluble acridone derivatives were screened for antimalarial activity against the CQ-sensitive D6 and the MDR Dd2 strains of P. falciparum.

[8] = tested on: MDR P. falciparum strain Dd2; assay: In vitro chemosensitization to chloroquine (RMI), strain Dd2; assay type: cell-based; conditions: Plasmodium falciparum, DD2, read-out: IC50 of CQ in combination with 5 μM of selected drug, Dd2
[9] = tested on: murine splenic lymphocytes (MSLCs); assay: Cytotoxicity by Alamar Blue assay; conditions: for IVTI: ratio of cytotoxicity IC50 (vs. MSLCs) to antimalarial IC50 against D6; for IC50: cytotoxicity
[10] = tested on: late trophozoites in PRBCs; assay: Morphological changes in acridone treated parasites (blood smears, light microscopy); conditions: compared to drug-free controls
Excerpt: This example provides morphological changes in acridone treated parasites. […] These preliminary evaluations of blood smears by light microscopy indicate that acridones cause alterations in parasite morphology and viability.

[11] = target: T1, recombinant human serotonin transporter (hSERT) (Homo sapiens, UniProt P31645); assay: [125I]RTI-55 binding, HEK-hSERT
T1 construct: expressed in transfected cells

[12] = tested on: P. yoelii sporozoites; assay: Prophylactic efficacy, murine sporozoite-induced malaria model; assay type: in vivo; conditions: 160 mg/kg ig on days −1, 0 and 1
Experimental: This example evaluates the prophylactic efficacy of the acridone T2. T2 was evaluated in a murine P. yoelii sporozoite-induced malaria model to determine prophylactic efficacy.
Mice were treated with 160 mg/kg ig, on days −1, 0, and 1 with injection of 250,000 sporozoites on day 0.

[13] = tested on: P. yoelii; assay: Single-dose ig efficacy after patent infection in mice; assay type: in vivo; conditions: single ig dose 100 mg/kg; HCl salt
Experimental: The single-dose efficacy of acridone compounds also was assessed in vivo using ig treatment after patent infection. Test compounds were administered as a single dose at 100 mg/kg (30 mg/kg for CQ) 24 hours after P. yoelii infection, and blood smears were collected 48 and 72 hours post-treatment.

[14] = tested on: MDR P. falciparum Dd2; assay: Fixed-ratio combination (isobologram) with quinoline antimalarials, Dd2; assay type: cell-based; conditions: isobolar analysis
Experimental: In one embodiment, synergism is assessed herein using fixed-ratio combinations that provide information over a wide range of drug concentrations. […] If these stock solutions were termed Drug A and Drug B, then six final stock solutions were prepared from this initial stock: Drug A alone, Drug B alone, and volume:volume mixtures of Drug A and B in the following ratios: 4:1, 3:2, 2:3, and 1:4. Two-fold dilutions of each of the six final stock solutions were done robotically across a 96-well plate in quadruplicate. Subsequent steps were typical of standard drug-susceptibility methods. […] The data pointed from all six curves were then analyzed using Calcusyn software (commercially available from BioSoft, Cambridge, UK) for determination of synergy. Output from this analysis included FIC values used to plot isobolograms as well as a rigorously determined synergy index, termed the combination index (CI) (Calcusyn). FIC50 isobolograms, CI's and tabulation of IC90 component drug concentrations were reported.
The combinations of the acridones T3.5 and T2 with quinine were assessed for synergism.
FIG. 6 is an isobologram charting the efficacy of quinine in combination with T3.5 in vitro against CQ-sensitive (D6) and MDR (Dd2) P. falciparum.

[15] = target: T2, recombinant human dopamine transporter (hDAT) (Homo sapiens, UniProt Q01959); assay: [125I]RTI-55 binding, HEK-hDAT
T2 construct: expressed in transfected cells

[16] = target: T3, recombinant human norepinephrine transporter (hNET) (Homo sapiens, UniProt P23975); assay: [125I]RTI-55 binding, HEK-hNET
T3 construct: expressed in transfected cells

[17] = tested on: P. berghei (ANKA); assay: Efficacy vs patent P. berghei infection in mice
[18] = tested on: P. yoelii (K); assay: Curative efficacy vs patent infection, three once-daily doses (adapted 6-day Thompson test)
[19] = General toxicity in treated mice; conditions: 256 mg/kg/day×3 days
[20] = tested on: CQ-sensitive P. yoelii (strain K); assay: 4-day suppressive test in female CF-1 mice; assay type: in vivo
Experimental: This example describes evaluation of the in vivo antimalarial efficacy of the disclosed acridones against CQ-sensitive P. yoelii (strain K) in female CF-1 mice. Illustrated in FIG. 2, are the results of a 4-day suppressive test with acridone T2 (3-(2-diethylaminoethoxy)-6-chloro-9-acridone)) in PBS administered intragastrically (ig) by gavage one hour after infection and then once daily, 24, 48 and 72 hours later.
This example describes evaluation of acridones in rodent models of blood-stage malaria.

[21] = D6, Table 2, average of 4 independent experiments, read-out: IC50, D6
[22] = D6, Table 3, MSF assay, read-out: IC50 P. falciparum D6
[23] = DD2, Table 2, average of 4 independent experiments, read-out: IC50, Dd2
[24] = DD2, Table 3, MSF assay, read-out: IC50 P. falciparum Dd2

T1 sequence (P31645 whole entry): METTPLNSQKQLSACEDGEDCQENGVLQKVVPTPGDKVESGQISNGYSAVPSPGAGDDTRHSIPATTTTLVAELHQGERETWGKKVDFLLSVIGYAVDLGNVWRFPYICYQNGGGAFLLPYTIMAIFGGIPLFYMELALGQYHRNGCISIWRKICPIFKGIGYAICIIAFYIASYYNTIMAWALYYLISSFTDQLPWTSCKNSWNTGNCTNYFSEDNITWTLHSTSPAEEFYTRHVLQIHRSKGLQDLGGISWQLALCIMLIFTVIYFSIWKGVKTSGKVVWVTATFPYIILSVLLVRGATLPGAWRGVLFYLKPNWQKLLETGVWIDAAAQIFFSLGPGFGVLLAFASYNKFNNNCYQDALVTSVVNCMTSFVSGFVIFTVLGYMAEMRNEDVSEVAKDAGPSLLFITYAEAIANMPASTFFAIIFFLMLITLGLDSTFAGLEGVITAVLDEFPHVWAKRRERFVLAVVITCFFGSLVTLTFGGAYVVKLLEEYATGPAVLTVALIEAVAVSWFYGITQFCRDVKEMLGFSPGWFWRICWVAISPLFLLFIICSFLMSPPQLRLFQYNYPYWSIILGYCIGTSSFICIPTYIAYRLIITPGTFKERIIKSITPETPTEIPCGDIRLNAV
T2 sequence (Q01959 whole entry): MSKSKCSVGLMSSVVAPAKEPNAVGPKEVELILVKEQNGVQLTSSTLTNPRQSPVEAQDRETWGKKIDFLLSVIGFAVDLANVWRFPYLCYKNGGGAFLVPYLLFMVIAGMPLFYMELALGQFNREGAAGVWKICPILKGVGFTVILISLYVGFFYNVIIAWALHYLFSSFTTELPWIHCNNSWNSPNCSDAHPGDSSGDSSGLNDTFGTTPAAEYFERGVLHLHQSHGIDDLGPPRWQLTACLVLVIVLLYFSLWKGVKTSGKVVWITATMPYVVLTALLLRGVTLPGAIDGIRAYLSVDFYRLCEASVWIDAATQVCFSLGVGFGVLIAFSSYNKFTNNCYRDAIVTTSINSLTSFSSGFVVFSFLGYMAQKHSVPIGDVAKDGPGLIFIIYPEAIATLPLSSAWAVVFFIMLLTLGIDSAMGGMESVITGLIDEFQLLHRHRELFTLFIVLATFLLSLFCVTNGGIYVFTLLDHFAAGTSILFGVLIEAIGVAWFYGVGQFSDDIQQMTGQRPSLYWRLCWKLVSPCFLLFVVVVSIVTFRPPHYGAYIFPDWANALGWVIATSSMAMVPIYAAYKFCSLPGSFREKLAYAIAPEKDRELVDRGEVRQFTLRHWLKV
T3 sequence (P23975 whole entry): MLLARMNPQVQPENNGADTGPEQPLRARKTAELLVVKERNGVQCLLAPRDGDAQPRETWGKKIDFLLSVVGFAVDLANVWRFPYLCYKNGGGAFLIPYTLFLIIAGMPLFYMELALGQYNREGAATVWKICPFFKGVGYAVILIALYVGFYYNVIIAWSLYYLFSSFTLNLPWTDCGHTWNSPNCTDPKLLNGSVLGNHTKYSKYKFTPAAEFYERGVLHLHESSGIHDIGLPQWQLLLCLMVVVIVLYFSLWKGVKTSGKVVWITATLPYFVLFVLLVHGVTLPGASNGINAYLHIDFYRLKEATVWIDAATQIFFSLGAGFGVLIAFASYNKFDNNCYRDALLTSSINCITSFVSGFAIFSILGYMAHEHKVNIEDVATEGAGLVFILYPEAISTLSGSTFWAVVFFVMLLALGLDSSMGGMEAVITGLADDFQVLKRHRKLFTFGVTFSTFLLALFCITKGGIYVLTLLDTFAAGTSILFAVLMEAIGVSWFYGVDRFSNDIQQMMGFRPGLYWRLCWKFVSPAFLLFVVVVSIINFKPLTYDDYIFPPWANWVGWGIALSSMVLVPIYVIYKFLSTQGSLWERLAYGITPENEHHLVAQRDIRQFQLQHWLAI

With `CCN(CC)CCCC(C)Nc1ccnc2cc(Cl)ccc12` (centres unmarked) [Chloroquine, reference compound] as the compound, how does the IC50 [1] read?
Its IC50 is 8.4 nM.

And the “formation of heme aggregates” value [2]?
The value was “fails to prevent heme aggregation”.

What about the IC50 [3] of the same compound?
The IC50 was 124 nM.

And the IC50 [4]?
The IC50 was 290 nM.

What about the IC50 ([5]; D6, read-out: IC50, D6) of the same compound?
Its IC50 is 6.8 nM.

What about the IC50 ([5]; D6, read-out: IC50 P. falciparum D6) of the same compound?
Its IC50 is 8.4 nM.

And the IC50 ([5]; D6, read-out: IC50 of CQ, CQ-sensitive strain D6)?
Its IC50 is 15 nM.

What about the “Heme-binding Ka” value [6] of the same compound?
Its value is 5.5 10^4 M^−1.

What about the IC50 ([7]; DD2, read-out: IC50, Dd2) of the same compound?
The IC50 was 132 nM.

And the IC50 ([7]; DD2, read-out: IC50 P. falciparum Dd2)?
Its IC50 is 124 nM.

And the IC50 [8]?
The IC50 was 100 nM.

For `CCN(CC)CCOc1ccc2c(=O)c3ccccc3[nH]c2c1` [T1, 3-(2-diethylaminoethoxy)-9-acridone], which IVTI [9] is on record?
The IVTI was >150.

What about the IC50 ([9]; read-out: IC50, MSLCs, Table 2) of the same compound?
Its IC50 is > 25000 nM.

What about the IC50 ([9]; read-out: IC50 MSLCs, Table 3) of the same compound?
The IC50 was > 25000 nM.

What about the IC50 [5, 21] of the same compound?
Its IC50 is 167 nM.

And the IC50 [5, 22]?
The IC50 was 167 nM.

And the “appearance of treated late trophozoites” value [10]?
Its value is “pale staining with loss of intracellular definition and fragmented hemozoin”.

What about the IC50 [7, 23] of the same compound?
The IC50 was 159 nM.

What about the IC50 [7, 24] of the same compound?
The IC50 was 159 nM.

Which Ki [11] does the source give for `CCN(CC)CCOc1ccc2c(=O)c3ccc(Cl)cc3[nH]c2c1` [T2, 3-(2-diethylaminoethoxy)-6-chloro-9-acridone] here?
The Ki was > 10000 nM.

And the toxicity [12]?
The toxicity was “No toxicity was observed”.

And the “treated animals parasite-free on days 6, 11 and 14” value [12]?
The value was “all 5 treated animals to be parasite-free”.

And the “formation of heme aggregates” value [2]?
Its value is “prevent the formation of heme aggregates”.

And the “reduction of parasitemia at 72 hours” value [13]?
The value was “greater than 90%”.

What about the interaction with quinine [14] of the same compound?
Its interaction with quinine is “not and no evidence of synergy”.

And the Ki [15]?
Its Ki is > 10000 nM.

And the Ki [16]?
Its Ki is 5850 nM.

And the ED90 ([17]; P. berghei (ANKA))?
The ED90 was 80 mg/kg/day.

What about the ED50 ([17]; patent P. berghei (ANKA) infection, by gavage) of the same compound?
Its ED50 is 55 mg/kg/day.

And the “long-term outcome (parasitemia at 30 days, cure)” value ([18]; 256 mg/kg/day)?
The value was “long-term cure”.

And the “ED50 and ED90, gavage (ig) dosing, in words” value ([18]; ig, three once-daily doses)?
The value was “comparable”.

And the “ED50 (ip)” value ([18]; ip once daily for three days)?
The value was 38 mg/kg/day.

And the “ED90 (ip)” value ([18]; ip once daily for three days)?
Its value is 66 mg/kg/day.

And the weight loss [19]?
Its weight loss is 10%.

And the “cytotoxicity at the highest tested concentration” value ([9]; 25 μM)?
The value was “no evidence of cytotoxicity”.

And the IVTI [9]?
Its IVTI is >1389.

And the IC50 ([9]; read-out: IC50, MSLCs, Table 2)?
The IC50 was > 25000 nM.

What about the IC50 ([9]; read-out: IC50 MSLCs, Table 3) of the same compound?
The IC50 was > 25000 nM.

And the IC50 [5, 21]?
Its IC50 is 18 nM.

And the IC50 [5, 22]?
The IC50 was 26 nM.

And the “mice parasite-free to the end of the observation period” value ([20]; 200 mg/kg/day)?
Its value is “all of the four mice in that group remained parasite-free”.

What about the suppression of parasitemia ([20]; 200 mg/kg/day, assessed 24 hours after the last dose) of the same compound?
Its suppression of parasitemia is “completely suppressed parasitemia; also recorded: complete suppression”.

What about the ED50 ([20]; Plasmodium yoelii, po, 96 h, ig by gavage, once daily, 4 days) of the same compound?
Its ED50 is 27.1 mg/kg.

And the ED90 ([20]; ig by gavage, once daily, 4 days)?
Its ED90 is 42 mg/kg.

What about the “Heme-binding Ka” value [6] of the same compound?
Its value is 4.3 10^4 M^−1.

What about the IC50 [7, 23] of the same compound?
Its IC50 is 17 nM.

And the IC50 [7, 24]?
Its IC50 is 33 nM.

Source: US9399625B2, “Acridone compounds” (Oregon Health & Science University, priority 2006, dated 2016)
